Source: patent US20060188508A1, “Methods and compositions for modulating angiogenesis” (priority 2005, published 2006)
Ends that are not written are not given here.

Columns and labels:
Clone 18 = experiment: Drug sensitivity by MTT assay (IC50); assay type: cell-based, human; settings: for IC50: MTT assay, mean ± SD of three determinations; for Fold of resistance (Clone 18/M2182tTA): IC50 of clone 18 divided with IC50 of M2182tTA; for Killing of clone 18 cells compared with parental cells: non-taxane drugs, Table 1
M2182tTA = experiment: Drug sensitivity by MTT assay (IC50); assay type: cell-based, human; settings: mean ± SD of three determinations
M2182tTA cells [1] = experiment: Preliminary taxol exposure of plated cells before selection of resistant clones; assay type: cell-based, human; settings: 5 days of exposure to 5 nM taxol; preliminary experiments
clone 18 cells [2] = experiment: TUNEL assay of taxol-induced apoptosis; assay type: cell-based, human; settings: taxol plus 7.5 μg/ml purified TSP-1, 3 days
M2182tTA cells [3] = experiment: Modulation of drug cytotoxicity by added TSP-1, mimetic peptides, anti-CD47 antibody or pertussis toxin (MTT viability); assay type: cell-based, human
clone 18 cells [4] = experiment: Modulation of drug cytotoxicity by added TSP-1, mimetic peptides, antibody or MDR inhibitor (MTT viability); assay type: cell-based, human; settings: for Effect on taxol resistance / taxol cytotoxicity in clone 18: added to culture with various taxol concentrations, MTT
[5] = target: CD47 receptor (integrin-associated protein) (human, UniProt Q08722 19-323); experiment: cell-based or functional assay
[6] = adriamycin, etoposide, vinblastine, vincristine, epothilone B

Molecule: CC[C@]1(O)C[C@@H]2CN(CCc3c([nH]c4ccccc34)[C@@](C(=O)OC)(c3cc4c(cc3OC)N(C)[C@H]3[C@@](O)(C(=O)OC)[C@H](OC(C)=O)[C@]5(CC)C=CCN6CC[C@]43[C@@H]65)C2)C1 [Vinblastine, vinblastine]
- IC50 (Clone 18; Homo sapiens): 7 ± 0.21 nM
- Fold of resistance (Clone 18/M2182tTA) (Clone 18): 0.93
- Killing of clone 18 cells compared with parental cells (Clone 18): No evidence of reduced killing
- IC50 (M2182tTA; Homo sapiens): 7.5 ± 0.18 nM

Molecule: CC(=O)O[C@H]1C(=O)[C@@]2(C)[C@H]([C@H](OC(=O)c3ccccc3)[C@]3(O)C[C@H](OC(=O)[C@H](O)[C@@H](NC(=O)c4ccccc4)c4ccccc4)C(C)=C1C3(C)C)[C@]1(OC(C)=O)CO[C@@H]1C[C@@H]2O [Taxol, Paclitaxel]
- IC50 (Clone 18; Homo sapiens): 17.5 ± 0.18 nM
- Fold of resistance (Clone 18/M2182tTA) (Clone 18): 2.45
- Fold of resistance (Clone 18/M2182tTA) (Clone 18; listed as taxol): approximately two and a half-fold
- Surviving M2182tTA cells (M2182tTA cells [1]): no surviving M2182tTA cells
- IC50 (M2182tTA; Homo sapiens): 7.2 ± 0.11 nM

Molecule: CC[C@]1(O)C[C@H]2CN(CCc3c([nH]c4ccccc34)[C@@](C(=O)OC)(c3cc4c(cc3OC)N(C=O)[C@H]3[C@@](O)(C(=O)OC)[C@H](OC(C)=O)[C@]5(CC)C=CCN6CC[C@]43[C@@H]65)C2)C1 [Vincristine, vincristine]
- IC50 (Clone 18; Homo sapiens): 12 ± 0.42 nM
- Fold of resistance (Clone 18/M2182tTA) (Clone 18): 1.09
- Killing of clone 18 cells compared with parental cells (Clone 18): No evidence of reduced killing

Molecule: TSP-1: TSP-1 purified from human platelets, purchased from EMD Biosciences
- Taxol-induced apoptosis (clone 18 cells [2]): dramatically and synergistically increased
- Effect on taxol-mediated killing of naïve M2182tTA cells (M2182tTA cells [3]; added to culture with taxol, MTT): reduced survival
- Effect on sensitivity of M2182tTA cells to other chemotherapeutic drugs (M2182tTA cells [3]; [6]): sensitization was not observed
- Survival and apoptosis with agent alone (clone 18 cells [4]; TSP-1 alone at the dosage added to clone 18 cultures): only limited ability to reduce survival and induce apoptosis
- Effect on taxol resistance / taxol cytotoxicity in clone 18 (clone 18 cells [4]): dose-dependent partial reversal
- Effect on killing of clone 18 cells by other chemotherapeutic agents (clone 18 cells [4]; [6]): no effects

Molecule: COc1cc([C@@H]2c3cc4c(cc3[C@@H](O[C@@H]3O[C@@H]5CO[C@@H](C)O[C@H]5[C@H](O)[C@H]3O)[C@H]3COC(=O)[C@H]23)OCO4)cc(OC)c1O [Etoposide, etoposide]
- IC50 (Clone 18; Homo sapiens): 650 ± 60 nM
- Fold of resistance (Clone 18/M2182tTA) (Clone 18): 0.81
- Killing of clone 18 cells compared with parental cells (Clone 18): No evidence of reduced killing
- IC50 (M2182tTA; Homo sapiens): 800 ± 30 nM

Molecule: CC(=O)O[C@@]12CO[C@@H]1C[C@H](O)[C@@]1(C)C(=O)[C@H](O)C3=C(C)[C@@H](OC(=O)[C@H](O)[C@@H](NC(=O)OC(C)(C)C)c4ccccc4)C[C@@](O)([C@@H](OC(=O)c4ccccc4)[C@H]21)C3(C)C [Docetaxel]
- IC50 (Clone 18; Homo sapiens): 6.93 ± 0.05 nM
- Fold of resistance (Clone 18/M2182tTA) (Clone 18): 2.62
- IC50 (M2182tTA; Homo sapiens): 2.66 ± 0.11 nM

Molecule: KRFYVVMWKK [4N1K]
- Effect on taxol resistance / taxol cytotoxicity in clone 18 (clone 18 cells [4]): dose-dependent partial reversal

Molecule: KRFYGGMWKK [4NGG]
- Effect on taxol resistance / taxol cytotoxicity in clone 18 (clone 18 cells [4]): no effect

Molecule: COc1cccc2c1C(=O)c1c(O)c3c(c(O)c1C2=O)C[C@@](O)(C(=O)CO)C[C@@H]3O[C@H]1C[C@H](N)[C@H](O)[C@H](C)O1 [Adriamycin, adriamycin]
- IC50 (Clone 18; Homo sapiens): 0.133 ± 0.0071 µg/mL
- Fold of resistance (Clone 18/M2182tTA) (Clone 18): 0.83
- Killing of clone 18 cells compared with parental cells (Clone 18): No evidence of reduced killing
- IC50 (M2182tTA; Homo sapiens): 0.15 ± 0.0099 µg/mL

Molecule: GVITRIR (human) [ABT-510]
- Effect on taxol resistance / taxol cytotoxicity in clone 18 (clone 18 cells [4]): no effect

Molecule: C/C(=C\c1csc(C)n1)[C@@H]1C[C@@H]2O[C@]2(C)CCC[C@H](C)[C@H](O)[C@@H](C)C(=O)C(C)(C)[C@@H](O)CC(=O)O1 [Epothilone B]
- Fold of resistance (Clone 18/M2182tTA) (Clone 18): 0.9
- IC50 (Clone 18): 0.68 ± 0.21 nM
- Killing of clone 18 cells compared with parental cells (Clone 18): No evidence of reduced killing
- IC50 (M2182tTA): 0.75 ± 0.35 nM

B1: anti-CD47 monoclonal antibody, clone B6H12 (BD Pharmingen) (antibody)
chain: EVQLVESGGDLVKPGGSLKLSCAASGFTFSGYGMSWVRQTPDKRLEWVATITSGGTYTYYPDSVKGRFTISRDNAKNTLYLQIDSLKSEDTAIYFCARSLAGNAMDYWGQGTSVTVSSGGGGSGGGGSGGGGSDIVMTQSPATLSVTPGDRVSLSCRASQTISDYLHWYQQKSHESPRLLIKFASQSISGIPSRFSGSGSGSDFTLSINSVEPEDVGVYYCQNGHGFPRTFGGGTKLEIK
- viability of M2182tTA cells to taxol treatment (MTT assay, 10 ug/ml antibody) [5]: 2.2 fold
